# According to patent publication EP0639376A1, “Liquid composition containing amide derivative” (TERUMO KABUSHIKI KAISHA, priority 1993, dated 1995):
# Legend:
# Type in all cases: physicochemical
# [1] = Test for solubility: dissolution of the compound observed with the naked eye; conditions: Table 5; 0.05 g compound, 1.0 g HCO-60, pH buffer
# Experimental: To test the solubility of the above-mentioned compound, various experiments were carried out under different conditions in the presence or absence of a nonionic surfactant.
# Formulation No. 1 was prepared by heating and dissolving 0.05 g of Compound (III) and 0.5 g of polyoxyethylene-hardened castor oil (HCO-60) in a beaker at about 60°C followed by gradually adding thereto lactic acid/sodium lactate buffer (pH 5.0) as the pH buffer while stirring to dissolve them.
# [2] = Test for stability: percentage of compound remaining after storage at 60°C, measured by liquid chromatography; conditions: for remaining at 480 h: buffer with hco-60, Table 5, 0.05 g compound, 1.0 g HCO-60, pH buffer, 60°C, 20 days, read-out: Stability (as percentage of compound remained after stored at 60°C for 20 days)
# Experimental: The difference in the stability of Compound (III) was tested, depending on the solubilizer added thereto. The stability was represented by the percentage (%) of the amount of Compound (III) remained after storage. Precisely, each sample formulation shown in Table 2 below was put in a glass tube with a screw cap and stored for 10 days and 20 days both at 60°C, whereupon the percentage of the amount of the compound remained after the storage was measured by liquid chromatography. From the value thus measured, the stability of the compound was evaluated.
# Next, to examine the influence of the concentration of the solubilizer on the stability of Compound (III), experiments were carried out where the concentration of the nonionic surfactant to be added was stepwise increased while the concentration of Compound (III) was kept constant. Precisely, each sample formulation shown in Table 3 below was stored for 10 days and 20 days both at 60°C, whereupon the percentage (%) of the amount of Compound (III) remained after the storage was measured by liquid chromatography. On the basis of the thus-measured percentage, the stability of the compound was evaluated.
# [3] = Mean particle size of formed micelles by light-scattering photometry; design: key: - : No micelle detected; conditions: Compound (III) 0.005 W/V %
# Excerpt: It was confirmed that, when the concentration of Compound (III) was 0.005 W/V % and when the concentration of HCO-60 was 0.10 W/V % or more, micelles having a mean particle size of from 16 to 20 nm were formed.
# [4] = Solubility of the compound in solvents (description of the substance)
smiles,measurement,setting,value
CCOC(=O)Oc1ccc(/C=C/C=C/C(=O)NCCCN2CCN(C(c3ccccc3)c3ccccc3)CC2)cc1OC [Compound (V)],Solubility,[1],Dissolved clear.
same,remaining at 480 h,[2],92.1%
CCOC(=O)Oc1ccc(/C=C/C(=O)NCCN2CCC(OC(c3ccccc3)c3ccccc3)CC2)cc1OC(=O)OCC [(VI)],Solubility,[1],Dissolved clear.
same,remaining at 480 h,[2],90.9%
"CCOC(=O)Oc1ccc(/C=C/C=C/C(=O)NCCN2CCC(OC(c3ccccc3)c3ccccc3)CC2)cc1OC [Compound (III), 1-[{5'-(3''-methoxy-4''-ethoxycarbonyloxyphenyl)-2',4'-pentadienoyl}aminoethyl]-4-diphenylmethoxypiperidine]",stabilization of Compound (III),"[2]; result in words, from Table 3, HCO-60 0.10 W/V % or more",almost satisfactorily stabilized
same,Mean Particle Size,[3]; HCO-60 0.05 W/V %,-
same,Mean Particle Size,[3]; HCO-60 0.10 W/V %,16.2 +/- 3.7 nm
same,Mean Particle Size,[3]; HCO-60 0.25 W/V %,19.6 +/- 4.3 nm
same,Mean Particle Size,[3]; HCO-60 0.50 W/V %,18.3 +/- 4.5 nm
same,Mean Particle Size,[3]; HCO-60 1.00 W/V %,18.8 +/- 4.2 nm
same,solubility in acetone,[4],easily soluble
same,solubility in acetonitrile,[4],soluble in acetonitrile to some degree
same,solubility in dichloroethane,[4],easily soluble
same,solubility in ethanol,[4],hardly soluble
same,solubility in water,[4],almost insoluble
CCOC(=O)Oc1ccc(/C=C/C=C/C(=O)NCCN2CCC(OC(c3ccccc3)c3ccccc3)CC2)cc1OC(=O)OCC [(VII)],Solubility,[1],Dissolved clear.
same,remaining at 480 h,[2],92.6%
CCOC(=O)Oc1ccc(/C=C/C(=O)NCCN2CCC(OC(c3ccccc3)c3ccccc3)CC2)cc1OC [Compound (IV)],Solubility,[1],Dissolved clear.
same,remaining at 480 h,[2],91.2%
